# Data: US11149062B2, “HDAC inhibitors and methods of treatment using the same” (UWM Research Foundation, Inc., priority 2015, dated 2021)
# pIC50: −log10 of the molar value.
# Experiments:
# [1] = molecular target: T1, Recombinant human HDAC8 (Homo sapiens, UniProt Q9BY41); experiment: HDAC-Glo I/II assay, HDAC8; assay type: biochemical; settings: Class I HDAC; compounds reduced by TCEP prior to assay
# T1 construct: purchased BPS Bioscience Inc
# T1 sequence (Q9BY41 1-377): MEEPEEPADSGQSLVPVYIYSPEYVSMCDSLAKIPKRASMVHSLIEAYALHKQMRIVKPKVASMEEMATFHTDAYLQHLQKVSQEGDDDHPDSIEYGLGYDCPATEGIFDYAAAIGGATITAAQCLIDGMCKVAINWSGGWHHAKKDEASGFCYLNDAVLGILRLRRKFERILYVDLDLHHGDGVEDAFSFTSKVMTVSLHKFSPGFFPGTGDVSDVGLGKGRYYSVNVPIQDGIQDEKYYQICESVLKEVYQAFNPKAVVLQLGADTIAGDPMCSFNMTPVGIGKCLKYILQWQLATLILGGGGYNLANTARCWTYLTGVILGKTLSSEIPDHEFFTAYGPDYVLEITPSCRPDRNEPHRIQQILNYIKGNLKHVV
# Experimental: (§1) The purified compounds of all fragments and natural product derivatives were evaluated for inhibitory effects on three different classes of HDAC proteins (class I, IIa, and IIb). […] All activity was determined by using a fluorescence-based in vitro assay. Class I HDAC proteins that were evaluated were HDAC1, HDAC2, HDAC3, HDAC8, HDAC4, and HDAC6. Class IIa HDAC protein were HDAC4 and the Class IIb HDAC protein were HDAC6.
# (§2) HDAC-Glo™ I/II Assay and Screening System (Promega) was used to determine the HDAC inhibitory activity. Recombinant human HDAC1, HDAC2, HDAC3, HDAC4, HDAC6 and HDAC8 were purchased from BPS Bioscience Inc. The inhibitory activities of the test compounds against recombinant HDAC were performed according to reagent suppliers' protocols.
# (§3) All test compounds were firstly dissolved in DMSO to make 10 mM stock solution. A certain amount of stock solution was diluted to 1 mM by DMSO and then reduced by tris(2-carboxyethyl)phosphine hydrochloride (TCEP) in a molar ration of 1:1.5 for 20 min at ambient temperature prior to being assayed. After reduction, a series of fivefold dilutions of each reduced compound were prepared with HDAC-Glo buffer and 25 μL of each dilution was added into a well on a 96-well plate. HDAC enzymes were diluted to the desired concentrations with HDAC-Glo buffer and 25 μL of each diluted enzyme was dispensed into a well to mix with 25 μL of testing compound at room temperature for 30-60 seconds. After the reaction mixture had been incubated at room temperature for 1 hour, 50 μL of HDAC-Glo reagent was added to each reaction well and mixed up for 30-60 seconds. Finally, the plate was incubated at room temperature for an additional 30 minutes before the luminescence was measured on a Synergy HT plate reader (Bio-Tek). The luminescence intensity data were analyzed using GraphPad Prism 5 (GraphPad Software). In the absence of any test compound, the luminescence intensity (I100) in each data set was defined as 100% activity. In the absence of both of HDAC enzymes and test compound, the luminescence intensity (I0) in each data set was defined as 0% activity. The relative activity (%) in the presence of each compound was calculated according to the following equation: % activity=(I−I0)/(I100−I0), where I=the luminescence intensity if a compound is present in the reaction. Experiments were performed in triplicate and the calculated mean values were used for plotting.
# [2] = molecular target: T2, Recombinant human HDAC3 (Homo sapiens, UniProt O15379); experiment: HDAC-Glo I/II assay, HDAC3; assay type: biochemical; settings: Class I HDAC; compounds reduced by TCEP prior to assay
# T2 construct: purchased BPS Bioscience Inc
# T2 sequence (O15379 whole entry): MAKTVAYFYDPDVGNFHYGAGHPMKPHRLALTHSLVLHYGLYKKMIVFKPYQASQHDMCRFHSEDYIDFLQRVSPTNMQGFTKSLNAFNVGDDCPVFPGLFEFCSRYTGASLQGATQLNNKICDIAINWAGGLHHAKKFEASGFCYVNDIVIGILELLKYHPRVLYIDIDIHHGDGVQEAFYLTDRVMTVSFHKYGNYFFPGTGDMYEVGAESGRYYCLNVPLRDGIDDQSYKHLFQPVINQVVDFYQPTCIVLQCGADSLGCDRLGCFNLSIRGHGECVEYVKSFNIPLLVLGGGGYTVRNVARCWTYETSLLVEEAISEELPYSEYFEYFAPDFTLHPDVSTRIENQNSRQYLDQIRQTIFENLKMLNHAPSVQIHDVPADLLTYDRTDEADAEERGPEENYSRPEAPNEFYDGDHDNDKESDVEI
# T2 sequence (Q9Y618 395-489 partner limits assumed): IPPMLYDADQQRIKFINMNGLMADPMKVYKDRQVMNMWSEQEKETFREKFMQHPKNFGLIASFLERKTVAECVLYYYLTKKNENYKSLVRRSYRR
# Experimental: as §1, §2, §3
# [3] = test system: HeLa (cervical cancer); experiment: MTT antiproliferative assay, HeLa; assay type: cell-based; settings: Homo sapiens, MTT, 48 h, read-out: Antiproliferative Activity GI50, Cervical HeLa
# Experimental: (§4) Briefly, the tumor cells (1×10^4 cells/well) were seeded in 96-well microtiter plates and incubated for 24 h at 37° C. Following incubation, the media was replaced with fresh media containing the above compounds at concentrations ranging from 1 μM to 1 pM diluted in DMSO and incubated for an additional 48 h. Drugs were run in duplicate or triplicate and control cells received fresh media with DMSO concentration equivalent to the treatment groups. […] After aspirating the culture medium, 200 μL of DMSO was added to dissolve the precipitate and the resulting solution was measured for absorbance at 570 nm with a reference wavelength of 690 nm using a microplate reader (Infinite M200 Pro TECAN).
# [4] = test system: RFX393 (renal); experiment: MTT antiproliferative assay, RFX393; assay type: cell-based; settings: MTT, 48 h; read-out: Antiproliferative Activity GI50, Renal RFX393
# Experimental: as §4
# [5] = in vivo; settings: BALB/c, mouse, in vivo, ip
# Source text: BALB/c mice were purchased from The Jackson Laboratory (Bar Harbor, Me.) and used between 7 and 10 weeks of age. Mice were housed in a conventional animal vivarium and were given free access to food and water. All studies and procedures were approved by the Animal Care and Use Committee of the University of Wisconsin, Milwaukee.
# Each animal was initially weighed using a digital scale and then intraperitoneally (IP) injected with the compounds (listed in Table 2). A single mouse was given a single IP dose of 200 mg/kg, body weight, a second mouse received a dose of 100 mg/kg and a third mouse received a single dose of 50 mg/kg. The mice were observed and weighed every other day for a period of 2 weeks. They were euthanized if they lost more than 20% of their body weight or if there were other signs of significant toxicity. […] This process was repeated until a tolerated dose was found, and the MTD value was determined.
# To determine the MTD in vivo, the compounds listed above were injected intraperitoneally into BALB/c mice and morbidity and mortality were monitored over two weeks.
SMILES,pIC50 [1],pIC50 [2],GI50 [3] [nM],GI50 [4] [nM],MTD at 2 weeks [5] [mg/kg]
"CSCC[C@H]1NC(=O)CC(O)/C=C/CCSSC[C@H](C(=O)O)NC1=O (stereo partly drawn) [TDF3, (4S,7R,12E)-11-hydroxy-7-[2-(methylsulfanyl)ethyl]-6,9-dioxo-1,2-dithia-5,8-diazacyclopentadec-12-ene-4-carboxylic acid]",4.20,6.09,600,200,> 200
"COC(=O)[C@H]1CSSCC/C=C/C(O)CC(=O)N[C@H](CCSC)C(=O)N1 (stereo partly drawn) [TDF3m, Methyl (4S,7R,12E)-11-hydroxy-7-[2-(methylsulfanyl)ethyl]-6,9-dioxo-1,2-dithia-5,8-diazacyclopentadec-12-ene-4-carboxylate]",4.20,6.21,400,300,> 200
